Assay results published in ChEMBL document CHEMBL1130453, “Synthesis and biological activity of a new anti-factor Xa pentasaccharide with a C-interglycosidic bond” (Bioorg Med Chem Lett, 1997).

Legend:
[1] = biological target: Coagulation factor X (Homo sapiens) (UniProt P00742); assay: Anti-factor Xa activity by amidolytic method.
[2] = biological target: Antithrombin-III (Homo sapiens, UniProt P01008); assay: In vitro binding affinity against antithrombin III (AT III) was determined by fluorescence spectroscopy
Antithrombin-III, sequence (P01008 whole entry): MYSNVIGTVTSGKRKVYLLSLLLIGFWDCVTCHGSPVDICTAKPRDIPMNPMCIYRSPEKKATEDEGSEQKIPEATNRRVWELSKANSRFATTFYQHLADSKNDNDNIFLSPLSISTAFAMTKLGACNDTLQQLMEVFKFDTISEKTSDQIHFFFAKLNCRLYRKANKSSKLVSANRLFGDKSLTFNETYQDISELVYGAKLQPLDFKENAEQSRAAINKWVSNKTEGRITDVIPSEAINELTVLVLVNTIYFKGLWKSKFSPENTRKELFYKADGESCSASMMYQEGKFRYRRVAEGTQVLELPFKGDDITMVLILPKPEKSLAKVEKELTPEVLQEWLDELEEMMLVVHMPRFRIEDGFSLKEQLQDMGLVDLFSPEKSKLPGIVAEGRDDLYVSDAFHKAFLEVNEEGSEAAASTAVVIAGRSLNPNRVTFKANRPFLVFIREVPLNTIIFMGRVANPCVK

Coagulation factor X (Homo sapiens), sequence (P00742 41-179 limits assumed): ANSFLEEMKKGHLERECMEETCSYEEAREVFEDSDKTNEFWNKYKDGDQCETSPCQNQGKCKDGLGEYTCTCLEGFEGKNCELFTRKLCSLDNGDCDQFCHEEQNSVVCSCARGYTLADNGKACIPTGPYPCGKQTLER
Coagulation factor X (Homo sapiens), sequence (P00742 235-488 limits assumed): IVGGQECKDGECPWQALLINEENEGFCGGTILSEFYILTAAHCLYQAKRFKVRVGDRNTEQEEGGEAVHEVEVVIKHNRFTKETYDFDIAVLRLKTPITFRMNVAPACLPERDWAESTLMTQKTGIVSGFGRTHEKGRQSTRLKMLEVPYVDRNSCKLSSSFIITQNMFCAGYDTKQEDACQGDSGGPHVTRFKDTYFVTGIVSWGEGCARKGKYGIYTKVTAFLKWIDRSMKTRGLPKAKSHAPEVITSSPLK

Anti-Factor Xa activity [1] [U/mg]	Kd [2] [nM]	Structure (SMILES)
880	2.8	CO[C@H]1O[C@@H](COS(=O)(=O)O)[C@@H](O[C@@H]2O[C@@H](C(=O)O)[C@H](O[C@H]3O[C@@H](COS(=O)(=O)O)[C@@H](O[C@@H]4O[C@@H](C(=O)O)[C@@H](C[C@H]5O[C@@H](COS(=O)(=O)O)[C@@H](OC)[C@H](OC)[C@@H]5OC)[C@H](OC)[C@@H]4OC)[C@H](OS(=O)(=O)O)[C@@H]3OS(=O)(=O)O)[C@H](OC)[C@H]2OC)[C@H](OS(=O)(=O)O)[C@@H]1OS(=O)(=O)O
1180		CO[C@H]1O[C@@H](COS(=O)(=O)O)[C@@H](O[C@@H]2O[C@@H](C(=O)O)[C@H](O[C@H]3O[C@@H](COS(=O)(=O)O)[C@@H](O[C@@H]4O[C@@H](C(=O)O)[C@@H](O[C@H]5O[C@@H](COS(=O)(=O)O)[C@@H](OC)[C@H](OC)[C@@H]5OC)[C@H](OC)[C@@H]4OC)[C@H](OS(=O)(=O)O)[C@@H]3OS(=O)(=O)O)[C@H](OC)[C@H]2OC)[C@H](OS(=O)(=O)O)[C@@H]1OS(=O)(=O)O
